Reference: patent EP4700025A1, “AMIDE COMPOUND, PHARMACEUTICAL COMPOSITION COMPRISING SAME, AND USE THEREOF” (Suzhou Genhouse Bio Co., Ltd., priority 2023, dated 2024)
Where two headings read alike, the source gives them in different places.

Experiments:
PRMT5 = PRMT5 (Homo sapiens, UniProt O14744); assay: Inhibitory activity against enzymatic activity of PRMT5 (fluorescence polarization); format: biochemical; settings: PRMT5 25 nM, SAM 1 µM, polypeptide 1 µM, MTA 2 µM; 37 °C 2 hours
Experimental: The compounds were prepared into 10 mM stock solutions using DMSO, and then 9 concentration gradients (with an initial concentration of 10 µM followed by 1:5 dilution) were prepared using a buffer (50 mM Tris-HCl pH 8.5, 5 mM MgCl2, 4 mM DTT, 0.01% Triton X-100, 0.1 M NaCl, 0.5% DMSO), and each well received 5 µL of the diluted compound solutions. SAM, a polypeptide, and MTA were prepared using a buffer to final concentrations of 1 µM, 1 µM, and 2 µM, respectively, and were added to each well in a total of 5 µL. Meanwhile, an MTA-free group was set as a control. […] Subsequently, a mixture of 2.5 µL of stop buffer A, 2.5 µL of an 8× MT assay mixture (final concentration: 1×), and 24 µg/mL AMP2/GMP2 antibodies (final concentration: 3 µg/mL) was added. The resulting mixture was incubated at room temperature for 1.5 hours, and fluorescence polarization (FP) was measured (Ex 633, Em 647). Meanwhile, negative control wells without protein (Blank) and positive control wells without compound (DMSO) were set. Each experiment was independently repeated three times.
Data processing: The numerical values of each group were recorded for statistical analysis, and the inhibition rate was calculated according to the following formula: inhibition percentage of compound wells (% inh) = [1 - (ave Blank - Cpd well)/(ave Blank - ave DMSO control)] × 100. Note: ave represents the average value, and Cpd represents the numerical value of the wells containing the compound. A sigmoidal dose-inhibition rate curve was plotted and fitted using a nonlinear regression model in the GraphPad Prism 7.0 software, and the IC50 value was calculated. Table 1. Inhibitory activity of compounds against enzymatic activity of PRMT5

CYP450 2D6 = molecular target: T1, CYP450 2D6 (Homo sapiens, UniProt P10635); assay: Inhibition of human liver microsome CYP450 enzyme 2D6; format: in vitro ADME
T1 construct: from tissue; host or cells: human liver microsomes
Experimental: 100 mM K-Buffer: 9.5 mL of stock solution A was mixed with 40.5 mL of stock solution B, the total volume was adjusted to 500 mL with ultrapure water, and the buffer was titrated to pH 7.4 with KOH or H3PO4. • Starting material A (1 M potassium dihydrogen phosphate): 136.5 g of potassium dihydrogen phosphate in 1 L of water; • Stock solution B ([…]): 174.2 g of potassium dihydrogen phosphate in 1 L of water.
The test substance powder was prepared into a stock solution at a certain concentration with DMSO or another organic solvent, which was then further diluted with a suitable organic solvent.
The liver microsomal in vitro incubation system for the CYP450 enzyme metabolism phenotype study was a biochemical reaction of the prepared liver microsomes supplemented with a redox coenzyme and an enzyme-specific selective inhibitor under simulated physiological temperature and physiological environment conditions.
The concentration of the parent drug or a metabolite thereof in the incubation solution was determined by LC-MS/MS. and the IC50 value was calculated.

NCI-H838 cells = assay: Pharmacodynamic study, NCI-H838 subcutaneous xenograft; format: in vivo, mouse
Experimental: Human non-small cell lung cancer NCI-H838 cells were cultured in monolayer in vitro using the McCoy 5A culture medium (HyClone) containing 10% fetal bovine serum (BI) and 1% penicillin and streptomycin (Beyotime) in an incubator at 37 °C with 5% CO2. The cells were digested with trypsin 2 to 3 times weekly for passaging. When the saturation degree of the cells was 80% to 90%, the cells were collected, counted, and inoculated. 5 × 10^6 (0.1 mL) NCI-H838 cells were subcutaneously inoculated on the right back of each mouse. On about day 29 after inoculation of the cells, the mean tumor volume reached 156 mm^3. The mice were randomly grouped for administration (the animals were divided into an administration group and a control group, with 6 animals in each group). The day of grouping was designated as d0, and intragastric administration was started on d1. The administration was performed once daily at an administration volume of 10 mL/kg. Vehicle control was administered to the control group. The tumor volume was measured 2 to 3 times weekly, and meanwhile, the mice were weighed and the data were recorded; daily observations were made to record the body surface signs of the mice. After the experiment was completed, the tumors were collected, weighed, and photographed for recording.
Calculation formula for tumor volume: Tumor volume (mm^3) = 1/2 × (a×b^2) [formula] (note: a represents long diameter and b represents short diameter) [formula]

[1] = molecular target: T2, hERG Potassium Ion Channel (Homo sapiens, UniProt Q12809); assay: Effect on hERG potassium ion channel (whole-cell patch clamp, HEK293 cells); format: cell-based; settings: human, whole-cell patch clamp (Qpatch), room temperature
T2 construct: expressed in transfected cells; host or cells: HEK293
Experimental: HEK293 cells were cultured in a DMEM medium containing 10% fetal bovine serum and 0.8 mg/mL G418 at 37 °C with 5% CO2. The cells were digested by TrypLE™ Express and then centrifuged. The cell density was adjusted to 2 × 10^6 cells/mL. The cells were then gently mixed for 15 to 20 min using a shaker equilibrated at room temperature, and subjected to a patch clamp assay on a machine. The culture medium of the prepared cells was replaced with extracellular fluid. The intracellular fluid and the extracellular fluid were taken from the fluid pool and added to the intracellular fluid pool and the cell and test substance pool of the QPlate chip, respectively. The voltage stimulation of the whole-cell hERG potassium current was recorded by the whole-cell patch clamp, and the experimental data were collected and stored by Qpatch. […] The current detected in compound-free extracellular fluid for each cell served as its own control group, and the detection was repeated twice independently using at least two cells per concentration. […] For data analysis, the current after the action of each drug concentration and the current of the blank control were standardized ((Peak tail currentcompound)/(Peak tail currentvehicle)) [formula] , and then the inhibition rate corresponding to each drug concentration was calculated (1−(Peak tail currentcompound)/(Peak tail currentvehicle)) [formula] . […]

Chain of PRMT5 (O14744 whole entry): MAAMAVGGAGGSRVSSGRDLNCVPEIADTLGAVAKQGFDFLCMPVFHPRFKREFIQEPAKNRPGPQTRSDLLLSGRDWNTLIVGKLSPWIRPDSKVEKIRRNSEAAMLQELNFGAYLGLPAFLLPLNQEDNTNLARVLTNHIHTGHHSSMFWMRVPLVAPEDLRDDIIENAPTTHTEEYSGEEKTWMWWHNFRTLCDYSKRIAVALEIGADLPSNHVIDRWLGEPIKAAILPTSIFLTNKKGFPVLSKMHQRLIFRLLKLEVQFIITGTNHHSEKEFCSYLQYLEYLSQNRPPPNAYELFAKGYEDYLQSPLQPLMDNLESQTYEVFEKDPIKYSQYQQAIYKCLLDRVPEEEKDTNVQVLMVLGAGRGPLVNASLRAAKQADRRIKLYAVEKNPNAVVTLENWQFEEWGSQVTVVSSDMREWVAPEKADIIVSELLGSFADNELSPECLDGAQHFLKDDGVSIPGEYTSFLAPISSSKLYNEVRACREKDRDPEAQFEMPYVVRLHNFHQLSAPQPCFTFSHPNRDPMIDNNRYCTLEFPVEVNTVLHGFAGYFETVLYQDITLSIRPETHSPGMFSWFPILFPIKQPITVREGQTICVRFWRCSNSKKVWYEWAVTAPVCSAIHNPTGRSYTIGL
Chain of PRMT5 (Q9BQA1 whole entry partner): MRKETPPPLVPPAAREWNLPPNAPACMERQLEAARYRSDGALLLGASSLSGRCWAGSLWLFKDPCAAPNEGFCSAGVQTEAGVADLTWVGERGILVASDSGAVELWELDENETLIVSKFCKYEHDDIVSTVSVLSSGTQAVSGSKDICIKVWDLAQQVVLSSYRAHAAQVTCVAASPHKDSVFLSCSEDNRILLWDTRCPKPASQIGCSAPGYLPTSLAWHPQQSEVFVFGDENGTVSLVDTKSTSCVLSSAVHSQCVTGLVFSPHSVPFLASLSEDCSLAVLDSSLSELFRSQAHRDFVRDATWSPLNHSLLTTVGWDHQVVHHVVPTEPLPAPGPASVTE
T1 sequence (P10635 whole entry): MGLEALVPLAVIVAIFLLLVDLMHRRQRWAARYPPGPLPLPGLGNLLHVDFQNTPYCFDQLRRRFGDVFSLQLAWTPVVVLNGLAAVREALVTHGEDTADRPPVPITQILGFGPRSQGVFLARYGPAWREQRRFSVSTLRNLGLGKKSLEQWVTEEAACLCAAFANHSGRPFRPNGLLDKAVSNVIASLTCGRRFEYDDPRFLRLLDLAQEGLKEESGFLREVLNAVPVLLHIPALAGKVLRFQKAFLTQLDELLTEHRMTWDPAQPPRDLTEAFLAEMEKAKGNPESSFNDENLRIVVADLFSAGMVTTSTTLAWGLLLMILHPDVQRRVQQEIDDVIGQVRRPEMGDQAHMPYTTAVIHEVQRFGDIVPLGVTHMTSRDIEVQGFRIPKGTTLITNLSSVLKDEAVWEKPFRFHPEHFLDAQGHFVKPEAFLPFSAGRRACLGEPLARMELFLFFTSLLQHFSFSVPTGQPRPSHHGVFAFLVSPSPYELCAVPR
T2 sequence (Q12809 whole entry): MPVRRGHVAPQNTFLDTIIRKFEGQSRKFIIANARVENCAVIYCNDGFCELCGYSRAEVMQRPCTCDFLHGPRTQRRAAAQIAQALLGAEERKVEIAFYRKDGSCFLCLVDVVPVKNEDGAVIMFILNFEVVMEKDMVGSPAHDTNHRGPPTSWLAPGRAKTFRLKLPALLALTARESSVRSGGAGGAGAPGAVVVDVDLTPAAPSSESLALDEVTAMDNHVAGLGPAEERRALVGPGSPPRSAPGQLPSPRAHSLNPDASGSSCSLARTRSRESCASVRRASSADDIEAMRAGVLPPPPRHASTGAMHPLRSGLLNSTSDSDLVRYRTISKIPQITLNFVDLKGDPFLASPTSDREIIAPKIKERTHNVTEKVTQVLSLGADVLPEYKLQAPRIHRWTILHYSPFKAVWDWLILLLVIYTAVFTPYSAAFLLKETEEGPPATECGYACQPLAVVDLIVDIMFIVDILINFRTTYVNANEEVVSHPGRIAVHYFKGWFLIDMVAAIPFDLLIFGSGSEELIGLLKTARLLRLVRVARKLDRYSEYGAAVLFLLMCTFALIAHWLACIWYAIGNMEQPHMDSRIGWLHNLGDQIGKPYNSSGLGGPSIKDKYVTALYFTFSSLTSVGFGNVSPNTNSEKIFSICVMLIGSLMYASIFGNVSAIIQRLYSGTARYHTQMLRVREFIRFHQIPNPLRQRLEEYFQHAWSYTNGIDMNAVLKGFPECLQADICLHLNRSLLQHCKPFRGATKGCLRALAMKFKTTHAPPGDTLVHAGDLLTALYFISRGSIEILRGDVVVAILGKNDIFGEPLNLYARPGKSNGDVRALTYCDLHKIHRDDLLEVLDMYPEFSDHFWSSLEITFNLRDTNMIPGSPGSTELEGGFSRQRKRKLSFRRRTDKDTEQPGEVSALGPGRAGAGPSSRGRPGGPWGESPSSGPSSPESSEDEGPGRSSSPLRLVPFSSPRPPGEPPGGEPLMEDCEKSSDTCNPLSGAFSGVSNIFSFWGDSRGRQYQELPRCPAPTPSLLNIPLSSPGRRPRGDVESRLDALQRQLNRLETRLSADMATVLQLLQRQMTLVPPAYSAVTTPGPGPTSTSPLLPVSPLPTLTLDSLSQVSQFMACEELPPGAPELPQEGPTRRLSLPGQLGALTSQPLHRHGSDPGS

IC50 (CYP450 2D6; human liver microsomes, 2D6, read-out: IC50) [µM] | SMILES | IC50 (PRMT5) [µM] | IC50 (CYP450 2D6; human, microsomes, pH 7.4) [µM] | Day 31 TGI (NCI-H838 cells; 10 mpk PO QD) [%] | Day 31 TGI (NCI-H838 cells; 30 mpk PO QD) [%] | Day 31 TGI (NCI-H838 cells; 100 mpk PO QD) [%] | IC50 [1] [µM]
– | Cn1ncc2c(N)nc3cc(F)c(C(=O)N4CCOC[C@@H]4c4ccc5c(c4)OC(F)(F)O5)cc3c21 [Example I-7] | 0.0284 | > 10 | – | – | – | –
– | Cn1ncc2c(N)nc3cnc(C(=O)N4CCOC[C@@H]4c4ccc5c(c4)OC(F)(F)O5)cc3c21 [Example I-38] | – | – | 75 | 105 | 107 | 22
> 10 | Cn1ncc2c(N)nc3cc(F)c(C(=O)N(Cc4ccc5c(c4)OC(F)(F)O5)C4CC4)cc3c21 [Example I-16] | 0.0346 | – | 97 | – | – | –
